Each compound was assayed against T1, Recombinant human HSD17B13 enzyme (Homo sapiens, UniProt Q7Z5P4) (assay: HSD17b13 NAD(P)H-Glo biochemical assay). Details: 50 μM estradiol, 1 mM NAD+, 37° C. for 3 hours; read-out: HSD17β13 IC50.
T1 sequence (Q7Z5P4 20-300): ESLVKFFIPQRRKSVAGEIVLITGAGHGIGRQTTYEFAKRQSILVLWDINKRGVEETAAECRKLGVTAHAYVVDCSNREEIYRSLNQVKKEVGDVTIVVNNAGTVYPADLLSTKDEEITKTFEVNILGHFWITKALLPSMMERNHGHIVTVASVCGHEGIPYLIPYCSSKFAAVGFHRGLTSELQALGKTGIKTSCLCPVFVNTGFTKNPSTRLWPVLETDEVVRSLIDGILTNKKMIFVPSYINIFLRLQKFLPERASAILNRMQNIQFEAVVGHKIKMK
Summary of the method: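 Enzyme preincubated with inhibitor 20 min at RT in 20 mM Tris pH7.4, 0.002% Tween-20, 0.02% BSA, then reacted 3 h at 37° C with 50 μM estradiol and 1 mM NAD+ (final). NADH formation read by NAD(P)H-Glo luminescence after 1 h at RT.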

| SMILES | IC50 [nM] |
| --- | --- |
| Cn1nc(-c2cc(C(F)(F)F)c(F)c(O)c2F)c2cnc(N3CCCCC3Cn3cncn3)nc21 (centres unmarked) [Compound 5.34, 3-(6-(2-((1H-1,2,4-Triazol-1-yl)methyl)piperidin-1-yl)-1-methyl-1H-pyrazolo[3,4-d]pyrimidin-3-yl)-2,6-difluoro-5-(trifluoromethyl)phenol] | 100 to 1000 |
| CC(C)CC1COCCN1c1ncc2c(-c3cc(C(F)(F)F)c(F)c(O)c3F)nn(C)c2n1 (centres unmarked) [Compound 5.35, 2,6-Difluoro-3-(6-(3-isobutylmorpholino)-1-methyl-1H-pyrazolo[3,4-d]pyrimidin-3-yl)-5-(trifluoromethyl)phenol] | ≤ 100 |
| CN(c1ncc2c(-c3cc(C(F)(F)F)c(F)c(O)c3F)nn(C)c2n1)C1CCCN(Cc2ccccc2)C1 (centres unmarked) [Compound 5.36, 3-(6-((1-Benzylpiperidin-3-yl)(methyl)amino)-1-methyl-1H-pyrazolo[3,4-d]pyrimidin-3-yl)-2,6-difluoro-5-(trifluoromethyl)phenol] | ≤ 100 |
| Cn1nc(-c2cc(C(F)(F)F)c(F)c(O)c2F)c2cnc(N3CCN(S(C)(=O)=O)C(CC4CCC4)C3)nc21 (centres unmarked) [Compound 5.37, 3-(6-(3-(Cyclobutylmethyl)-4-(methylsulfonyl)piperazin-1-yl)-1-methyl-1H-pyrazolo[3,4-d]pyrimidin-3-yl)-2,6-difluoro-5-(trifluoromethyl)phenol] | ≤ 100 |
| COC(=O)N1CCN(c2ncc3c(-c4cc(C(F)(F)F)c(F)c(O)c4F)nn(C)c3n2)[C@H](Cc2ccccc2)C1 [Compound 6, Methyl (R)-3-benzyl-4-(3-(2,4-difluoro-3-hydroxy-5-(trifluoromethyl)phenyl)-1-methyl-1H-pyrazolo[3,4-d]pyrimidin-6-yl)piperazine-1-carboxylate] | ≤ 100 |
| COCC(=O)N1CCN(c2ncc3c(-c4cc(C(F)(F)F)c(F)c(O)c4F)nn(C)c3n2)[C@H](Cc2ccccc2)C1 [Compound 6.03, (R)-1-(3-Benzyl-4-(3-(2,4-difluoro-3-hydroxy-5-(trifluoromethyl)phenyl)-1-methyl-1H-pyrazolo[3,4-d]pyrimidin-6-yl)piperazin-1-yl)-2-methoxyethan-1-one] | ≤ 100 |
| CC(=O)N1CCN(c2ncc3c(-c4cc(C(F)(F)F)c(F)c(O)c4F)nn(C)c3n2)C[C@@H]1Cc1ccccc1 [Compound 6.04, (S)-1-(2-Benzyl-4-(3-(2,4-difluoro-3-hydroxy-5-(trifluoromethyl)phenyl)-1-methyl-1H-pyrazolo[3,4-d]pyrimidin-6-yl)piperazin-1-yl)ethan-1-one] | ≤ 100 |
| CC(=O)N1CCN(c2ncc3c(-c4cc(C(F)(F)F)c(F)c(O)c4F)nn(C)c3n2)C[C@H]1Cc1ccccc1 [Compound 6.05, (R)-1-(2-Benzyl-4-(3-(2,4-difluoro-3-hydroxy-5-(trifluoromethyl)phenyl)-1-methyl-1H-pyrazolo[3,4-d]pyrimidin-6-yl)piperazin-1-yl)ethan-1-one] | ≤ 100 |
| CNC(=O)N1CCN(c2ncc3c(-c4cc(C(F)(F)F)c(F)c(O)c4F)nn(C)c3n2)C[C@@H]1Cc1ccccc1 [Compound 6.06, (S)-2-Benzyl-4-(3-(2,4-difluoro-3-hydroxy-5-(trifluoromethyl)phenyl)-1-methyl-1H-pyrazolo[3,4-d]pyrimidin-6-yl)-N-methylpiperazine-1-carboxamide] | ≤ 100 |
| CN(C)C(=O)N1CCN(c2ncc3c(-c4cc(C(F)(F)F)c(F)c(O)c4F)nn(C)c3n2)C[C@@H]1Cc1ccccc1 [Compound 6.07, (S)-2-Benzyl-4-(3-(2,4-difluoro-3-hydroxy-5-(trifluoromethyl)phenyl)-1-methyl-1H-pyrazolo[3,4-d]pyrimidin-6-yl)-N,N-dimethylpiperazine-1-carboxamide] | 100 to 1000 |
| COC(=O)N1CCN(c2ncc3c(-c4cc(C(F)(F)F)c(F)c(O)c4F)nn(C)c3n2)C[C@@H]1Cc1ccccc1 [Compound 6.08, Methyl (S)-2-benzyl-4-(3-(2,4-difluoro-3-hydroxy-5-(trifluoromethyl)phenyl)-1-methyl-1H-pyrazolo[3,4-d]pyrimidin-6-yl)piperazine-1-carboxylate] | ≤ 100 |
| CN(c1ncc2c(-c3cc(C(F)(F)F)c(F)c(O)c3F)nn(C)c2n1)C1(Cc2ccccc2)CCOCC1 [Compound 11.07, 3-(6-((4-Benzyltetrahydro-2H-pyran-4-yl)(methyl)amino)-1-methyl-1H-pyrazolo[3,4-d]pyrimidin-3-yl)-2,6-difluoro-5-(trifluoromethyl)phenol] | ≤ 100 |
| Cn1nc(-c2cc(C(F)(F)F)c(F)c(O)c2F)c2cnc(N3CCN(S(C)(=O)=O)CC3CC3CC3)nc21 (centres unmarked) [Compound 11.13, 3-(6-(2-(Cyclopropylmethyl)-4-(methylsulfonyl)piperazin-1-yl)-1-methyl-1H-pyrazolo[3,4-d]pyrimidin-3-yl)-2,6-difluoro-5-(trifluoromethyl)phenol] | ≤ 100 |
| Cn1nc(-c2cc(C(F)(F)F)c(F)c(O)c2F)c2cnc(N3CCN(C(=O)C(F)(F)F)CC3CC3CC3)nc21 (centres unmarked) [Compound 11.14, 1-(3-(Cyclopropylmethyl)-4-(3-(2,4-difluoro-3-hydroxy-5-(trifluoromethyl)phenyl)-1-methyl-1H-pyrazolo[3,4-d]pyrimidin-6-yl)piperazin-1-yl)-2,2,2-trifluoroethan-1-one] | ≤ 100 |

Now from value to compound:

| IC50 [nM] | SMILES |
| --- | --- |
| ≤ 100 | CN(C)C(=O)N1CCN(c2ncc3c(-c4cc(C(F)(F)F)c(F)c(O)c4F)nn(C)c3n2)[C@H](Cc2ccccc2)C1 [Compound 6.01, (R)-3-Benzyl-4-(3-(2,4-difluoro-3-hydroxy-5-(trifluoromethyl)phenyl)-1-methyl-1H-pyrazolo[3,4-d]pyrimidin-6-yl)-N,N-dimethylpiperazine-1-carboxamide] |
| ≤ 100 | CC(=O)N1CCN(c2ncc3c(-c4cc(C(F)(F)F)c(F)c(O)c4F)nn(C)c3n2)[C@H](Cc2ccccc2)C1 [Compound 6.02, (R)-1-(3-Benzyl-4-(3-(2,4-difluoro-3-hydroxy-5-(trifluoromethyl)phenyl)-1-methyl-1H-pyrazolo[3,4-d]pyrimidin-6-yl)piperazin-1-yl)ethan-1-one] |
| ≤ 100 | CCC(=O)N1CCN(c2ncc3c(-c4cc(C(F)(F)F)c(F)c(O)c4F)nn(C)c3n2)[C@H](Cc2ccccc2)C1 [Compound 6.09, (R)-1-(3-Benzyl-4-(3-(2,4-difluoro-3-hydroxy-5-(trifluoromethyl)phenyl)-1-methyl-1H-pyrazolo[3,4-d]pyrimidin-6-yl)piperazin-1-yl)propan-1-one] |
| ≤ 100 | Cc1cc(-c2nn(C)c3nc(N4CCN(S(C)(=O)=O)C[C@H]4Cc4ccccc4)ncc23)c(F)c(O)c1F [Compound 11.08, (R)-3-(6-(2-Benzyl-4-(methylsulfonyl)piperazin-1-yl)-1-methyl-1H-pyrazolo[3,4-d]pyrimidin-3-yl)-2,6-difluoro-5-methylphenol] |
| ≤ 100 | Cn1nc(-c2cc(F)c(F)c(O)c2F)c2cnc(N3CCN(S(C)(=O)=O)C[C@H]3Cc3ccccc3)nc21 [Compound 11.09, (R)-3-(6-(2-Benzyl-4-(methylsulfonyl)piperazin-1-yl)-1-methyl-1H-pyrazolo[3,4-d]pyrimidin-3-yl)-2,5,6-trifluorophenol] |
| ≤ 100 | Cn1nc(-c2cc(F)c(Cl)c(O)c2F)c2cnc(N3CCN(S(C)(=O)=O)C[C@H]3Cc3ccccc3)nc21 [Compound 11.10, (R)-3-(6-(2-Benzyl-4-(methylsulfonyl)piperazin-1-yl)-1-methyl-1H-pyrazolo[3,4-d]pyrimidin-3-yl)-6-chloro-2,5-difluorophenol] |
| 1000 to 30000 | Cn1nc(-c2cccc(O)c2)c2cnc(N3CCN(S(C)(=O)=O)C[C@H]3Cc3ccccc3)nc21 [Compound 11.11, (R)-3-(6-(2-Benzyl-4-(methylsulfonyl)piperazin-1-yl)-1-methyl-1H-pyrazolo[3,4-d]pyrimidin-3-yl)phenol] |
| ≤ 100 | Cn1nc(-c2cc(Cl)c(F)c(O)c2F)c2cnc(N3CCN(S(C)(=O)=O)C[C@H]3Cc3ccccc3)nc21 [Compound 11.12, (R)-3-(6-(2-Benzyl-4-(methylsulfonyl)piperazin-1-yl)-1-methyl-1H-pyrazolo[3,4-d]pyrimidin-3-yl)-5-chloro-2,6-difluorophenol] |
| ≤ 100 | Cn1nc(-c2cc(O)c(F)c(F)c2C#N)c2cnc(N3CCN(S(C)(=O)=O)C[C@H]3Cc3ccccc3)nc21 [Compound 11.15, (R)-6-(6-(2-Benzyl-4-(methylsulfonyl)piperazin-1-yl)-1-methyl-1H-pyrazolo[3,4-d]pyrimidin-3-yl)-2,3-difluoro-4-hydroxybenzonitrile] |
| ≤ 100 | Cn1nc(-c2c(C#N)cc(F)c(O)c2F)c2cnc(N3CCN(S(C)(=O)=O)C[C@H]3Cc3ccccc3)nc21 [Compound 11.16, 2-(6-((R)-2-Benzyl-4-(methylsulfonyl)piperazin-1-yl)-1-methyl-1H-pyrazolo[3,4-d]pyrimidin-3-yl)-3,5-difluoro-4-hydroxybenzonitrile] |
| ≤ 100 | C#Cc1cc(-c2nn(C)c3nc(N4CCN(S(C)(=O)=O)C[C@H]4Cc4ccccc4)ncc23)c(F)c(O)c1F [Compound 11.17, (R)-3-(6-(2-Benzyl-4-(methylsulfonyl)piperazin-1-yl)-1-methyl-1H-pyrazolo[3,4-d]pyrimidin-3-yl)-5-ethynyl-2,6-difluorophenol] |
| ≤ 100 | CC#Cc1cc(-c2nn(C)c3nc(N4CCN(S(C)(=O)=O)C[C@H]4Cc4ccccc4)ncc23)c(F)c(O)c1F [Compound 11.18, (R)-3-(6-(2-Benzyl-4-(methylsulfonyl)piperazin-1-yl)-1-methyl-1H-pyrazolo[3,4-d]pyrimidin-3-yl)-2,6-difluoro-5-(prop-1-yn-1-yl)phenol] |

From US20240368127A1, “HSD17B13 INHIBITORS AND USES THEREOF” (FL2022-001, Inc., priority 2021, published 2024)
